For data set [1], the target named is T1, integrin αvβ3 (vitronectin receptor purified from the human placenta) (Homo sapiens, UniProt P05106+P06756).
T1 construct: a vitronectin receptor (protein content: 118 μg/ml) purified from the human placenta; from tissue; host or cells: human placenta
Description: αvβ3 binding assay (vitronectin-vitronectin receptor binding assay). As to conditions: vitronectin receptor from human placenta; read-out: IC50, inhibition of binding between vitronectin and vitronectin receptor (αvβ3 binding inhibitory activity). On the procedure: Integrin αvβ3 antagonistic activity was measured for the compounds according to the present invention in a vitronectin-vitronectin receptor binding assay system in accordance with the method of Kouns et al. (W. C. Kouns, D. Kirchhofer, P. Hadvary, A. Edenhofer, T. Weller, G. Pfenninger, H. R. Baumgartner, L. K. Jennings and B. Steiner, Blood, 8, 2539-2547 (1992)).
Specifically, a vitronectin receptor (protein content: 118 μg/ml) purified from the human placenta in accordance with the method of Pytela et al. (R. Pytela, M. D. Pierschbacher, S. Argraves, S. Suzuki, and E. Ruoslahti, Method in Enzymology, 144, 475-489 (1987)) was diluted 50 times with TBS (20 mM Tris-HCl, 150 mM NaCl, 1 mM CaCl2, 1 mM MgCl2, pH 7.4), and distributed and coated on wells (50 μl/well) of a plate (Maxisorp, Nunc, 96 well Immuno Plate). The plate was then allowed to stand at 4° C. for 1 day, washed twice with TBS (200 μl/well), and then subjected to blocking with TBS (150 μl/well) containing 1% bovine serum albumin (SIGMA) at 4° C. overnight. After washing twice with TBS (200 μl/well), 50 μl of vitronectin (CALBIOCHEM) adjusted to 0.2 μg/ml by the addition of TBS (TBS-Tween) containing 0.01% Tween-20 was mixed with 50 μl of each test compound adjusted to each concentration in wells, and a reaction was allowed to proceed at room temperature for 4 hr. After the completion of the reaction, the wells were washed five times with TBS-Tween. A solution prepared by diluting anti-vitronectin rabbit antiserum (CHEMICON) 500 times with TBS-Tween was added as a primary antibody in an amount of 50 μl per well, and a reaction was allowed to proceed at room temperature for 1.5 hr. After washing five times with 200 μl/well of TBS-Tween, a peroxidase (POD)-labeled anti-rabbit IgG antibody solution (CAPPEL) diluted 500 times with TBS-Tween was added as a secondary antibody in an amount of 50 μl/well, and a reaction was allowed to proceed at room temperature for 1.5 hr. After washing five times with TBS-Tween (200 μl /well), ABTS (2,2′-azino-bis(3-ethylbenzthiazoline-6-sulfonic acid), SIGMA) was adjusted to 1 mg/ml by the addition of a ten-fold diluted POD-buffer (ZYMED), and added in an amount of 50 μl/well, and a reaction was allowed to proceed for 5 to 10 min. A 0.1 M citric acid buffer (pH 4.3) containing 0.05% NaN3 was added in an amount of 50 μl/well to stop the reaction, followed by the measurement of the absorbance at 415 nm with a microplate reader (MTP 32, Corona Electric) (reference: 675 nm). The total binding was defined as the absorbance after a reaction using 50 μl of TBS-Tween instead of the test compound, and the non-specific binding (100% inhibition) was defined as the absorbance after a reaction using 50 μl of TBS-Tween containing 2×10^−3 M RGDS. The inhibition was calculated by the following equation: [formula]
IC50 was determined from a primary regression line of the logarithm of each concentration of the test compound and the logarithm of (100−inhibition)/inhibition.

Data set [2] relates to human vascular smooth muscle cells. Briefly: Inhibition of adhesion of human vascular smooth muscle cells to immobilized human vitronectin. Format: cell-based. The settings on record: read-out: IC50, inhibitory activity against the adhesion of human vascular smooth muscle cells to vitronectin. How it is done: Inhibitory Activity Against Adhesion of Human Vascular Smooth Muscle Cells to Vitronectin
The adhesion of human vascular smooth muscle cells to immobilized human vitronectin was measured in accordance with the method of Liaw et al. (Liaw L, Almeida M, Hart C E, Schwartz S M, and Giachelli C M, Circulation Research, 74 (2), 214-224 (1994)).
A Dulbecco's phosphate buffer (Dulbecco's PBS(−), Nissui Pharmaceutical Co., Ltd.) solution of human plasma-derived vitronectin (CALBIOCHEM) adjusted to a concentration of 4 μg/ml was first added to wells (50 μl/well) of a microplate (Maxisorp, Nunc), and a reaction for immobilization was allowed to proceed at 4° C. overnight. […]
Next, 50 μl of a Dulbecco's modified Eagle's basal medium containing 10 mg/ml of bovine serum albumin with a medicament added thereto was added to the wells of the human vitronectin-coated assay microplate, followed by pre-cultivation under 5% carbon dioxide at 37° C. for 10 min. […] The absorbance of the microplate thus obtained was measured at 595 nm. […] The inhibition was calculated by the following equation. IC50 was determined from a primary regression line of the logarithm of each concentration of the test compound and the logarithm of (100−inhibition)/inhibition. […]

Data set [3] in a line: Oral absorption in rats. The settings on record: data not shown. Type of data set: in vivo. An excerpt: Therefore, any of the compounds, wherein R^9 represents an alkyl group or a hydrogen atom, can be used in the treatment of the above diseases.
In data set [4] the target is GP IIb/IIIa (Homo sapiens, UniProt P05106+P08514). Briefly: GP IIb/IIIa antagonistic activity (method of Pharmacological Test 2 in WO 94/21599). Format: binding. How it is done: (§1) GP IIb/IIIa Antagonistic Activity and Human Platelet Aggregation Inhibitory Activity
GP IIb/IIIa antagonistic activity was measured for the compounds according to the present invention. The measurement of the GP IIb/IIIa antagonistic activity was carried out according to the method described in Pharmacological Test 2 in WO 94/21599.

The subject of data set [5] is mice. Briefly: Acute toxicity test, intravenous administration to mice. Format: in vivo. The settings on record: 12.5 mg/kg. An excerpt: The compound of Example 3 was intravenously administered to mice.
The subject of data set [6] is human platelet aggregation. Description: Human platelet aggregation inhibitory activity (method of Pharmacological Test 1 in WO 94/21599). Type of data set: cell-based. How it is done: as §1
Human platelet aggregation inhibitory activity was measured for the compounds according to the present invention. The measurement of the human platelet aggregation activity was carried out according to the method described in Pharmacological Test 1 in WO 94/21599.

T1 sequence (P06756 31-889 limits assumed): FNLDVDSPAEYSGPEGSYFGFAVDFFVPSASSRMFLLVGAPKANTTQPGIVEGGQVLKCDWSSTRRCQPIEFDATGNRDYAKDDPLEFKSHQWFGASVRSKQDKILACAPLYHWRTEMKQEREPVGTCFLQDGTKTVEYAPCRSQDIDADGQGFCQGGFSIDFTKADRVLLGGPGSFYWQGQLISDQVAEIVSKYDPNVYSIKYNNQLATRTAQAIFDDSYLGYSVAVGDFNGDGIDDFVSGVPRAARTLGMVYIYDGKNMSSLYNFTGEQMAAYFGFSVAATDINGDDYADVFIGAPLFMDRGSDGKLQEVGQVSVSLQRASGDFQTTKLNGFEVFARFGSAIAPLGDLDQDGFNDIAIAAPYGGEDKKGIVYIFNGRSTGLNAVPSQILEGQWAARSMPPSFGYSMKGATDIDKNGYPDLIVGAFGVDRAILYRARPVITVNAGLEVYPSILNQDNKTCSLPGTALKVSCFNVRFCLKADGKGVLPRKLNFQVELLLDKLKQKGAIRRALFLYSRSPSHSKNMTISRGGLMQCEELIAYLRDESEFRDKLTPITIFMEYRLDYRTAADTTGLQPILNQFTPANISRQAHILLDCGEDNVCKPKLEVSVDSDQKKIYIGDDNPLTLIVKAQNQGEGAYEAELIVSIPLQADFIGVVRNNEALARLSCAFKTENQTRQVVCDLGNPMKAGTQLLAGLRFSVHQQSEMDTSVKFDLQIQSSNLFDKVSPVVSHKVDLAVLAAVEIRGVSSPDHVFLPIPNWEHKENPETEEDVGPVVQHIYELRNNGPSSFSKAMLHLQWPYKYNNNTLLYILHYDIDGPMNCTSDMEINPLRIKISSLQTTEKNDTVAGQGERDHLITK
T1 sequence (P06756 891-1048 partner limits assumed): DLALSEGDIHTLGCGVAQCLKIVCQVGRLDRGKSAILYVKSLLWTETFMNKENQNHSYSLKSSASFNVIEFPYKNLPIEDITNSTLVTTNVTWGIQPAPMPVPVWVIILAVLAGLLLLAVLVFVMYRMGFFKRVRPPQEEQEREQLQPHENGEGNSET
T1 sequence (P05106 27-788): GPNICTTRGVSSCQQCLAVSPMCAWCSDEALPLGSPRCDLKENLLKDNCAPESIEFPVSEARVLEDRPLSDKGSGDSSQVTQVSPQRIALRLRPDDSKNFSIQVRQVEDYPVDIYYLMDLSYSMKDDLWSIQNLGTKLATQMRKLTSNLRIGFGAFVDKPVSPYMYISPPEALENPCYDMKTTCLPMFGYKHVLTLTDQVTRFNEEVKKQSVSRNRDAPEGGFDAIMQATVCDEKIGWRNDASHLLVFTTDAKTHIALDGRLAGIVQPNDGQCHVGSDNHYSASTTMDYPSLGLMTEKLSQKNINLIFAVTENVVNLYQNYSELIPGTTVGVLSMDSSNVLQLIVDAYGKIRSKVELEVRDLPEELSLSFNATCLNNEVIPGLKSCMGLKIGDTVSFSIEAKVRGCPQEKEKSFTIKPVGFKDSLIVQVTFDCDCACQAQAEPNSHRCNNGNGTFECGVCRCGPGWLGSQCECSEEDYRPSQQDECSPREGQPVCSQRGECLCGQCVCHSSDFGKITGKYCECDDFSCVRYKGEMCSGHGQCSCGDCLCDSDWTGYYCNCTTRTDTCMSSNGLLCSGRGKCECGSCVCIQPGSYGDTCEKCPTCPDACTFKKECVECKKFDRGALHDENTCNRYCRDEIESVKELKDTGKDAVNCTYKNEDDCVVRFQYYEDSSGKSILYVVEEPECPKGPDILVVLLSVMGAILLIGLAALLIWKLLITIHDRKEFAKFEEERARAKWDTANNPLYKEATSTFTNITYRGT
GP IIb/IIIa, sequence (P08514 32-887 limits assumed): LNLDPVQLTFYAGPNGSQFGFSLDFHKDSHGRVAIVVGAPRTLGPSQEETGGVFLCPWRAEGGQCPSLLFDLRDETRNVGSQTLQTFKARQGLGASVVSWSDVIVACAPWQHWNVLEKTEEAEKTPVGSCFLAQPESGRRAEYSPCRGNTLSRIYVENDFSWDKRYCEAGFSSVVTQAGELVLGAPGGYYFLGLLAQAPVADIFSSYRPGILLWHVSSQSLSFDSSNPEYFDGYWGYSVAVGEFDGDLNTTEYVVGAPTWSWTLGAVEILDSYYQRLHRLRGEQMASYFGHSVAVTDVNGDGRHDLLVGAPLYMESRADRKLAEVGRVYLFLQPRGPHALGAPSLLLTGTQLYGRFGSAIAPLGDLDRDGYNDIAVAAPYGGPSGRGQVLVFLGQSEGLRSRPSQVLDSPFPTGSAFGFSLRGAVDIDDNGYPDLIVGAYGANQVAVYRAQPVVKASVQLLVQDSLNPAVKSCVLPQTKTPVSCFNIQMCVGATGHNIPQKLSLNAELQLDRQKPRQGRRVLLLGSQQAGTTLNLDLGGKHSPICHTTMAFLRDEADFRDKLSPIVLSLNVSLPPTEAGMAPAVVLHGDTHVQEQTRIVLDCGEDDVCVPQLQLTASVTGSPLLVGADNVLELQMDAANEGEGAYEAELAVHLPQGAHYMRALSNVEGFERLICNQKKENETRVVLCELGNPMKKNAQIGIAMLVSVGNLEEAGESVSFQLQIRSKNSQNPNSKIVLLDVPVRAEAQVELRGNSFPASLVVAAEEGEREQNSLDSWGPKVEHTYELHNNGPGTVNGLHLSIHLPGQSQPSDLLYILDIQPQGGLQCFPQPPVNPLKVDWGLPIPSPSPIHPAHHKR
GP IIb/IIIa, sequence (P08514 891-1039 partner limits assumed): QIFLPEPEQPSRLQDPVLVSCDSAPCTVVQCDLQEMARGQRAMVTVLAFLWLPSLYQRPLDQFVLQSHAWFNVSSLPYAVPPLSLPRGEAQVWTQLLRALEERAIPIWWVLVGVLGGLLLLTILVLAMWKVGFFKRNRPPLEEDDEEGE
GP IIb/IIIa, sequence (P05106 27-788): as the sequence (P05106 27-788) above

For orientation: IC50 means the point on the concentration scale where inhibition reaches its midpoint. As to `O=C(N[C@@H](CNC(=O)c1ccc(N2CCN(C3=NCCCN3)CC2)cc1)C(=O)O)OCc1ccccc1` [Example 30, (2S)-Benzyloxycarbonylamino-3-[4-{4-(1,4,5,6-tetrahydropyrimidin-2-yl)-piperazin-1-yl}-benzoylamino]-propionic Acid], the IC50 in data set [1] is 31 nM; in data set [2] it was 750 nM.
In the case of `O=C(NC[C@H](NS(=O)(=O)c1ccccc1)C(=O)O)c1ccc(N2CCN(C3=NCCCN3)CC2)cc1` [Example 3, (2S)-Benzenesulfonylamino-3-[4-{4-(1,4,5,6-tetrahydropyrimidin-2-yl)-piperazin-1-yl}-benzoylamino]-propionic acid], in data set [3], the oral absorption entry is “excellent oral absorption”. Also, in data set [4], the “GP IIb/IIIa antagonistic activity (in words)” value is recorded as “extremely high GP IIb/IIIa antagonistic activity”. Also, in data set [5], the “acute toxicity, symptoms” value is “no special symptom was developed”. Besides, in data set [6], the “human platelet aggregation inhibition (in words)” value was “very strongly inhibited human platelet aggregation”. For the same molecule, the 50% inhibitory concentration (IC50) in data set [6] (read-out: IC50, human platelet aggregation inhibition) was 34 nM.

Values taken from patent publication US6451800B1, “Phenylpiperazine derivatives as integrin αvβ3 antagonists” (Meiji Seika Kaisha, Ltd., priority 1998, dated 2002).
